# According to US8536204B2, “Amides and thioamides as pesticides” (Bayer CropScience AG, priority 2009, dated 2013):
# Columns and labels:
# [1] = system: green peach aphid (Myzus persicae); assay: Myzus test (spray treatment); type: in vivo; settings: 144 h, application rate 500 g/ha, spray on Chinese cabbage leaf slices, after 6 days, read-out: efficacy in % (100% means that all aphids have been killed)
# Protocol: Myzus Test (Spray Treatment)
# Solvent: • 78 parts by weight of acetone • 1.5 parts by weight of dimethylformamide
# (§1) Emulsifier: 0.5 part by weight of alkylaryl polyglycol ether
# (§2) To produce an appropriate active ingredient formulation, 1 part by weight of active ingredient is mixed with the amounts of solvent and emulsifier specified and the concentrate is diluted to the desired concentration with emulsifier-containing water.
# Chinese cabbage leaf slices (Brassica pekinensis) infested by all stages of the green peach aphid (Myzus persicae) are sprayed with an active ingredient formulation of the desired concentration.
# After 6 days, the efficacy in % is determined. 100% means that all aphids have been killed; 0% means that no aphids have been killed.
# Boophilus microplus = Boophilus microplus test (injection); type: in vivo; settings: application rate 20 μg/animal, injected into the abdomen, after 7 days
# Protocol: Boophilus Microplus Test (Injection)
# Solvent: dimethyl sulphoxide
# To produce an appropriate active ingredient formulation, 10 mg of active ingredient is mixed with 0.5 ml of solvent stated and the concentrate is diluted to the desired concentration with solvent. The active ingredient solution is injected into the abdomen (Boophilus microplus); the animals are transferred to dishes and stored in a climate-controlled room. The action is monitored by the laying of fertile eggs.
# After 7 days, the efficacy in % is determined. 100% means that no ticks have laid fertile eggs.
# [2] = Determination of the logP values (formic acid method) by HPLC; type: physicochemical; settings: reversed-phase HPLC column (C 18), pH 3.4, HPLC on reversed-phase column (C 18), acidic range (pH 3.4), 55° C.; Table 1; read-out: logP (HCOOH)
# Protocol: 1) Description of Method for Determining the LogP Values (Formic Acid Method)
# The logP values reported in the table were determined according to EEC-Directive 79/831 Annex V.A8 by HPLC (High Performance Liquid Chromatography) on a reversed-phase column (C 18). Temperature: 55° C.
# Eluents for the determination in the acidic range (pH 3.4):
# Eluent A: acetonitrile+1 ml of formic acid/litre. Eluent B: water+0.9 ml of formic acid/litre.
# Gradient: from 10% eluent A/90% eluent B to 95% eluent A/5% eluent B in 4.25 min.
# The calibration was effected with unbranched alkan-2-ones (with 3 to 16 carbon atoms), whose logP values are known (determination of the logP values on the basis of the retention times by linear interpolation between two successive alkanones). The lambda-max values were determined with reference to the UV spectra from 200 nm to 400 nm in the maxima of the chromatographic signals.
# [3] = system: larvae of the mustard beetle (Phaedon cochleariae); assay: Phaedon test (spray treatment); type: in vivo; settings: application rate 500 g/ha, spray on Chinese cabbage leaf slices, after 7 days
# Protocol: Phaedon Test (Spray Treatment)
# Solvent: • 78.0 parts by weight of acetone • 1.5 parts by weight of dimethylformamide
# as §1, §2
# Chinese cabbage leaf slices (Brassica pekinensis) are sprayed with an active ingredient formulation of the desired concentration and, after drying, populated with larvae of the mustard beetle (Phaedon cochleariae).
# After 7 days, the efficacy in % is determined. 100% means that all beetle larvae were killed; 0% means that no beetle larvae were killed.
SMILES,pest or weed control at 500 g/ha [1],efficacy in % (100% means that no ticks have laid fertile eggs) (Boophilus microplus),chromatographic logP [2],efficacy in % (100% means that all beetle larvae were killed) [3]
O=C(NCCF)c1cnn(-c2cccnc2)c1 [Example 9],100%,100%,0.56,–
"O=C(NCC(F)(F)F)c1cnn(-c2cccnc2)c1 [Example 3, 1-(pyridin-3-yl)-N-(2,2,2-trifluoroethyl)-1H-pyrazole-4-carboxamide]",100%,–,1.18,100%
